This is an account of results in ChEMBL document CHEMBL1158843, “Development of a radiochemical cyclooxygenase-1 and -2 in vitro assay for identification of natural products as inhibitors of prostaglandin biosynthesis” (J Nat Prod, 1998).

For test [1], the target named is T1, Prostaglandin G/H synthase 1 (Bos taurus, UniProt O62664).
T1 sequence (O62664 whole entry): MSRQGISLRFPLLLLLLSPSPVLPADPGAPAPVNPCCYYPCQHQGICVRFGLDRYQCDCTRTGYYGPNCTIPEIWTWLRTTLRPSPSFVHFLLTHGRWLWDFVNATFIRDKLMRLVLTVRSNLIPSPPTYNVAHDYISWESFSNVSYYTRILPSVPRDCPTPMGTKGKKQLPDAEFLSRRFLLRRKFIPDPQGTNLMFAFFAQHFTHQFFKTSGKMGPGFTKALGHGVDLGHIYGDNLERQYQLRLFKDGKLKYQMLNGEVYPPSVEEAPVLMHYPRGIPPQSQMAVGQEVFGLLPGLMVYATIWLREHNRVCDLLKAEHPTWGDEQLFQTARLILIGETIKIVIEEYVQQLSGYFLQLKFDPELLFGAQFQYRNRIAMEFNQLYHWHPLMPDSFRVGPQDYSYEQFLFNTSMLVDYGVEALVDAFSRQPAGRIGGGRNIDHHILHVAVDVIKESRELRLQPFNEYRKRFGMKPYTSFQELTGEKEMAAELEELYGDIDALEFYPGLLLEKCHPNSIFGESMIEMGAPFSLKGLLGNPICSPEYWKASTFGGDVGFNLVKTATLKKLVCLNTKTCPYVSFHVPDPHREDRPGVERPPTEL
Nature of the test: Inhibition of bovine seminal microsomal COX1 assessed as PGE2 production preincubated for 10 mins.

For test [2], the target named is T1, Prostaglandin G/H synthase 1. Nature of the test: Inhibition of bovine seminal microsomal COX1 assessed as PGE2 production.

The structures appear in SMILES notation.

On to `Oc1cc(O)c2c(c1)O[C@H](c1ccc(O)c(O)c1)[C@@H](O)C2` [CIANIDANOL], for which the IC50 (as a rule, the concentration at which inhibition is half-maximal) stood at 279 µM in test [1] and 183 µM in test [2].

In the case of `CS(=O)(=O)Nc1ccc([N+](=O)[O-])cc1OC1CCCCC1` [NS-398], the half-maximal inhibitory concentration (IC50) in test [1] is […].

As for `C[C@@H]1O[C@@H](Oc2c(-c3ccc(O)c(O)c3)oc3cc(O)cc(O)c3c2=O)[C@H](O)[C@H](O)[C@H]1O` [QUERCITRIN], the IC50 in test [1] and in test [2] was greater than 2000 µM each time.
